According to PubChem BioAssay AID1963849 (Molecular Pharmacology Branch, DTP, NCI, 2024):
pIC50: −log10 of the molar value.

Test system: 299254-011-R-J1-PDC complex spheroid viability
Assay: Anticancer human tumor 299254-011-R-J1-PDC patient-derived melanoma cell line growth inhibition [POLQ]
Settings: for pIC50: curve of first compound; for viability, T/C: stronger effect = lower value; active = viability on the fitted dose curve at most 10% of control; inactive = the rest
Method: Multicellular complex tumor spheroid response to Polymerase (POL) inhibitors (novobiocin, ART-558, RP6685) in combination with a variety of drugs and investigational agents in selected tumor cell lines
The POL inhibitors (novobiocin, ART-558, and RP6685) were evaluated both individually and in combination with standard of care and investigational anticancer small molecules within a complex spheroid model of solid tumors. . Complex spheroids include a stromal component modeled by human endothelial cells (HUVEC) and fibroblasts modeled by human mesenchymal stem cells (MSCs). The concentration ranges selected for each drug and investigational agent were based upon clinically achievable concentrations if the clinical Cmax of the agent was known.
Compounds. The drugs and investigational agents: novobiocin (NSC847541), ART-558 (NSC835418), RP-6685 (NSC848927), peposertib (NSC802822), ceralasertib (NSC780249), elimusertib (NSC800525), camonsertib (NSC841442), AZD-1390 (NSC803789), olaparib (NSC753686), talazoparib (NSC767125), rucaparib (NSC756644), sotorasib (NSC818433), MRTX-1133 (NSC836407), SN-38 (NSC673596), topotecan (NSC609699), epotoside (NSC141540), doxorubicin (NSC123127), gemcitabine (NSC613327), 5-fluorouracil (NSC19893), paclitaxel (NSC125973), vemurafenib (NSC761431), MSA-2 (NSC828583), SN-011 (NSC837082), adavosertib (NSC754352), prexasertib (NSC758257), carboplatin (NSC241240) and oxaliplatin (NSC266046), were obtained from the National Cancer Institute (NCI) Developmental Therapeutics Program Chemical Repository (21). The FDA-approved anticancer drug set is available from the Developmental Therapeutics Program at https://dtp.cancer.gov/organization/dscb/obtaining/. […] The stock solutions were prepared in dimethyl sulfoxide (DMSO, Sigma-Aldrich, St. Louis, MO, cat. D2650), except for the platinum compounds which were prepared in saline (Quality Biological, Gaithersburg, MD, cat. 114-055-101), at 800-fold the tested concentration and stored at -70 degrees C prior to their use. All drugs and investigational agents were tested over a range starting from a high concentration at or near the clinical Cmax and decreasing in half-log increments. If the clinical Cmax for an agent had not been determined, the highest concentration tested was 10 microM, except for SN-38, which was tested at a high concentration of 1 microM.
Cell Culture. All cells were maintained in an incubator at 37 degrees C and 5% CO2 with 95% humidity. The PDC lines were cultured according to standard operating procedures established by the NCI PDMR (https://pdmr.cancer.gov). Table 3 of the manuscript, lists the cell lines along with the number of the three cell types plated to form the mct-spheroids and media for tumor cell growth. After thawing, all PDC lines, except 997537-175-T-J1-PDC and 415267-285-R-J2-PDC, were cultured in Matrigel-coated flasks prepared with a working solution of 1X Ham's F-12 nutrient mix, without supplementation (Thermo Fisher Scientific, cat. 11765054), 100 U/mL penicillin-streptomycin (Thermo Fisher Scientific, cat. 15140122), and 2.5% Matrigel (Corning Inc., Corning, NY, cat. 354248) for the first three passages. The two PDC lines 997537-175-T-J1-PDC and 415267-285-R-J2-PDC were cultured on uncoated flasks. The 857933-349-R-J2-PDC line was cultured in 6C/Colon 1B media containing advanced DMEM/F-12 (Thermo Fisher Scientific, cat. 12634028), 10 mM HEPES (Thermo Fisher Scientific, cat. 15630080), 1X GlutaMAX supplement (Thermo Fisher Scientific, cat. 35050061), 0.1 mg/mL primocin (InvivoGen, San Diego, CA, cat. ant-pm-2), 10% defined fetal bovine serum, heat inactivated (HyClone Laboratories Inc., Logan, UT, cat. SH30070.03HI), 50% L-WRN conditioned media (ATCC, cat. CRL-3276), 1.25 mM N-Acetyl-L-cysteine (Sigma-Aldrich, cat. A9165), 10 mM nicotinamide (Sigma-Aldrich, cat. N0636), 1X B-27 supplement (Thermo Fisher Scientific, cat. 17504044), 1X N-2 supplement (Thermo Fisher Scientific, cat. […]
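Note: spheroids exposed to drugs for one week before measurement.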
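Throughout, for viability, T/C: percent viability relative to DMSO vehicle control taken as 100%.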

O=C(Nc1ccc(O)c(NS(=O)(=O)c2ccc(F)cc2)c1)c1ccc(-c2ccccc2)cc1 + COC1C(OC(N)=O)C(O)C(Oc2ccc3c(O)c(NC(=O)c4ccc(O)c(CC=C(C)C)c4)c(=O)oc3c2C)OC1(C)C
< 5.00: pIC50 (second compound 0.1 µM) | pIC50 (second compound 1 µM) | pIC50 (second compound 3.16 µM) | pIC50 (second compound 10 µM)
inactive: viability, T/C (second compound 0.0316 µM, first compound 0.0316 µM) 105% | viability, T/C (second compound 0.0316 µM, first compound 0.1 µM) 96.9% | viability, T/C (second compound 0.0316 µM, first compound 0.316 µM) 94.2% | viability, T/C (second compound 0.0316 µM, first compound 1 µM) 109% | viability, T/C (second compound 0.0316 µM, first compound 3.16 µM) 112% | viability, T/C (second compound 0.0316 µM, first compound 10 µM) 45.3% | viability, T/C (second compound 0.1 µM, first compound 0.0316 µM) 95.6% | viability, T/C (second compound 0.1 µM, first compound 0.1 µM) 114% | viability, T/C (second compound 0.1 µM, first compound 0.316 µM) 105% | viability, T/C (second compound 0.1 µM, first compound 1 µM) 94.6% | viability, T/C (second compound 0.1 µM, first compound 3.16 µM) 86.3% | viability, T/C (second compound 0.1 µM, first compound 10 µM) 57.1% | viability, T/C (second compound 0.316 µM, first compound 0.0316 µM) 127% | viability, T/C (second compound 0.316 µM, first compound 0.1 µM) 101% | viability, T/C (second compound 0.316 µM, first compound 0.316 µM) 104% | viability, T/C (second compound 0.316 µM, first compound 1 µM) 95.7% | viability, T/C (second compound 0.316 µM, first compound 3.16 µM) 97.7% | viability, T/C (second compound 0.316 µM, first compound 10 µM) 42.6% | viability, T/C (second compound 1 µM, first compound 0.0316 µM) 110% | viability, T/C (second compound 1 µM, first compound 0.1 µM) 104% | viability, T/C (second compound 1 µM, first compound 0.316 µM) 108% | viability, T/C (second compound 1 µM, first compound 1 µM) 118% | viability, T/C (second compound 1 µM, first compound 3.16 µM) 93.3% | viability, T/C (second compound 1 µM, first compound 10 µM) 54.7% | viability, T/C (second compound 3.16 µM, first compound 0.0316 µM) 109% | viability, T/C (second compound 3.16 µM, first compound 0.1 µM) 114% | viability, T/C (second compound 3.16 µM, first compound 0.316 µM) 109% | viability, T/C (second compound 3.16 µM, first compound 1 µM) 94.6% | viability, T/C (second compound 3.16 µM, first compound 3.16 µM) 99.4% | viability, T/C (second compound 3.16 µM, first compound 10 µM) 55.9% | viability, T/C (second compound 10 µM, first compound 0.0316 µM) 96.2% | viability, T/C (second compound 10 µM, first compound 0.1 µM) 127% | viability, T/C (second compound 10 µM, first compound 0.316 µM) 106% | viability, T/C (second compound 10 µM, first compound 1 µM) 103% | viability, T/C (second compound 10 µM, first compound 3.16 µM) 96.5% | viability, T/C (second compound 10 µM, first compound 10 µM) 58.4%
5.06: pIC50 (second compound 0.316 µM)
5.04: pIC50 (second compound 0.0316 µM)

CC(=O)O[C@H]1C(=O)[C@@]2(C)[C@H]([C@H](OC(=O)c3ccccc3)[C@]3(O)C[C@H](OC(=O)[C@H](O)[C@@H](NC(=O)c4ccccc4)c4ccccc4)C(C)=C1C3(C)C)[C@]1(OC(C)=O)CO[C@@H]1C[C@@H]2O + Cc1cccc(N(C)C(=O)C2C(O)CCN2c2nc(C)cc(C(F)(F)F)c2C#N)c1
7.57: pIC50 (second compound 3.16 µM)
7.04: pIC50 (second compound 0.1 µM)
7.16: pIC50 (second compound 0.316 µM)
6.91: pIC50 (second compound 0.0316 µM)
7.13: pIC50 (second compound 1 µM)
inactive: viability, T/C (second compound 0.0316 µM, first compound 0.00949 µM) 99.2% | viability, T/C (second compound 0.0316 µM, first compound 0.03 µM) 79.7% | viability, T/C (second compound 0.0316 µM, first compound 0.0949 µM) 55.1% | viability, T/C (second compound 0.0316 µM, first compound 0.3 µM) 35.7% | viability, T/C (second compound 0.0316 µM, first compound 0.949 µM) 22% | viability, T/C (second compound 0.0316 µM, first compound 3 µM) 24.4% | viability, T/C (second compound 0.1 µM, first compound 0.00949 µM) 84.3% | viability, T/C (second compound 0.1 µM, first compound 0.03 µM) 70.7% | viability, T/C (second compound 0.1 µM, first compound 0.0949 µM) 49.6% | viability, T/C (second compound 0.1 µM, first compound 0.3 µM) 31.3% | viability, T/C (second compound 0.1 µM, first compound 0.949 µM) 23.2% | viability, T/C (second compound 0.1 µM, first compound 3 µM) 20.7% | viability, T/C (second compound 0.316 µM, first compound 0.00949 µM) 90.2% | viability, T/C (second compound 0.316 µM, first compound 0.03 µM) 68.6% | viability, T/C (second compound 0.316 µM, first compound 0.0949 µM) 41.7% | viability, T/C (second compound 0.316 µM, first compound 0.3 µM) 33.1% | viability, T/C (second compound 0.316 µM, first compound 0.949 µM) 29.8% | viability, T/C (second compound 0.316 µM, first compound 3 µM) 23.4% | viability, T/C (second compound 1 µM, first compound 0.00949 µM) 84.9% | viability, T/C (second compound 1 µM, first compound 0.03 µM) 69.2% | viability, T/C (second compound 1 µM, first compound 0.0949 µM) 43.4% | viability, T/C (second compound 1 µM, first compound 0.3 µM) 31.6% | viability, T/C (second compound 1 µM, first compound 0.949 µM) 21.3% | viability, T/C (second compound 1 µM, first compound 3 µM) 23.2% | viability, T/C (second compound 3.16 µM, first compound 0.00949 µM) 68.5% | viability, T/C (second compound 3.16 µM, first compound 0.03 µM) 48% | viability, T/C (second compound 3.16 µM, first compound 0.0949 µM) 33.8% | viability, T/C (second compound 3.16 µM, first compound 0.3 µM) 27.5% | viability, T/C (second compound 3.16 µM, first compound 0.949 µM) 21.7% | viability, T/C (second compound 3.16 µM, first compound 3 µM) 21.4% | viability, T/C (second compound 10 µM, first compound 0.00949 µM) 49% | viability, T/C (second compound 10 µM, first compound 0.03 µM) 31.2% | viability, T/C (second compound 10 µM, first compound 0.0949 µM) 20.4% | viability, T/C (second compound 10 µM, first compound 0.3 µM) 23.2% | viability, T/C (second compound 10 µM, first compound 0.949 µM) 22.7% | viability, T/C (second compound 10 µM, first compound 3 µM) 19.6%
> 8.02: pIC50 (second compound 10 µM)
